According to ChEMBL document CHEMBL1130562, “Potent and selective inhibitors of the Abl-kinase: phenylamino-pyrimidine (PAP) derivatives” (Bioorg Med Chem Lett, 1997):

Key:
[1] = target: cAMP-dependent protein kinase (PKA) (Homo sapiens, UniProt P22694+P17612+P22612); experiment: Inhibition of protein kinase A.; type: protein assay, unidentified
[2] = target: Tyrosine-protein kinase ABL1 (Homo sapiens, UniProt P00519)
Description: Inhibition of v-Abl tyrosine kinase.

[3] = target: Protein kinase C delta type (Homo sapiens, UniProt Q05655); experiment: Inhibition of protein kinase C delta.
Sequence of Protein kinase C delta type (Q05655 whole entry): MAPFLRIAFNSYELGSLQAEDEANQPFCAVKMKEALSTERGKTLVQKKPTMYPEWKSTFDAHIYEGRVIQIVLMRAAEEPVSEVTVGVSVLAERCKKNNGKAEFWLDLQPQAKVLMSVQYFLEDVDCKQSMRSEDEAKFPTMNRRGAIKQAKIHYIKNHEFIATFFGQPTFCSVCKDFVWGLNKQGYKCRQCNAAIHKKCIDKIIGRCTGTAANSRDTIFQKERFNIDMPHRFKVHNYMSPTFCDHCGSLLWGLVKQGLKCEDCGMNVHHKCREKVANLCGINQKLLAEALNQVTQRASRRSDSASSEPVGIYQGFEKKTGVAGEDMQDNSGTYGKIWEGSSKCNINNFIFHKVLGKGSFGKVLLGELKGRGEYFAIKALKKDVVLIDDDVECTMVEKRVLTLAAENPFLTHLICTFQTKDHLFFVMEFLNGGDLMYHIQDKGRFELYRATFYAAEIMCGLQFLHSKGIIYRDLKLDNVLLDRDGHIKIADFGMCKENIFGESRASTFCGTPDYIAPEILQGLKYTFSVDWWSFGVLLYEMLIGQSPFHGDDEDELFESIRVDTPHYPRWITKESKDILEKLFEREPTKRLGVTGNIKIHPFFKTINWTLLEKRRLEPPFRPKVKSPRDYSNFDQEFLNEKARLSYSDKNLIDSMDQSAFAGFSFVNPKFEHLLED

[4] = target: Protein kinase C alpha type (Homo sapiens, UniProt P17252); experiment: Inhibition of protein kinase C alpha.
[5] = target: Platelet-derived growth factor receptor (Homo sapiens, UniProt P09619+P16234); experiment: Inhibition of the platelet-derived growth factor receptor.
[6] = target: Epidermal growth factor receptor (Homo sapiens, UniProt P00533)
Sequence of Epidermal growth factor receptor (P00533 whole entry): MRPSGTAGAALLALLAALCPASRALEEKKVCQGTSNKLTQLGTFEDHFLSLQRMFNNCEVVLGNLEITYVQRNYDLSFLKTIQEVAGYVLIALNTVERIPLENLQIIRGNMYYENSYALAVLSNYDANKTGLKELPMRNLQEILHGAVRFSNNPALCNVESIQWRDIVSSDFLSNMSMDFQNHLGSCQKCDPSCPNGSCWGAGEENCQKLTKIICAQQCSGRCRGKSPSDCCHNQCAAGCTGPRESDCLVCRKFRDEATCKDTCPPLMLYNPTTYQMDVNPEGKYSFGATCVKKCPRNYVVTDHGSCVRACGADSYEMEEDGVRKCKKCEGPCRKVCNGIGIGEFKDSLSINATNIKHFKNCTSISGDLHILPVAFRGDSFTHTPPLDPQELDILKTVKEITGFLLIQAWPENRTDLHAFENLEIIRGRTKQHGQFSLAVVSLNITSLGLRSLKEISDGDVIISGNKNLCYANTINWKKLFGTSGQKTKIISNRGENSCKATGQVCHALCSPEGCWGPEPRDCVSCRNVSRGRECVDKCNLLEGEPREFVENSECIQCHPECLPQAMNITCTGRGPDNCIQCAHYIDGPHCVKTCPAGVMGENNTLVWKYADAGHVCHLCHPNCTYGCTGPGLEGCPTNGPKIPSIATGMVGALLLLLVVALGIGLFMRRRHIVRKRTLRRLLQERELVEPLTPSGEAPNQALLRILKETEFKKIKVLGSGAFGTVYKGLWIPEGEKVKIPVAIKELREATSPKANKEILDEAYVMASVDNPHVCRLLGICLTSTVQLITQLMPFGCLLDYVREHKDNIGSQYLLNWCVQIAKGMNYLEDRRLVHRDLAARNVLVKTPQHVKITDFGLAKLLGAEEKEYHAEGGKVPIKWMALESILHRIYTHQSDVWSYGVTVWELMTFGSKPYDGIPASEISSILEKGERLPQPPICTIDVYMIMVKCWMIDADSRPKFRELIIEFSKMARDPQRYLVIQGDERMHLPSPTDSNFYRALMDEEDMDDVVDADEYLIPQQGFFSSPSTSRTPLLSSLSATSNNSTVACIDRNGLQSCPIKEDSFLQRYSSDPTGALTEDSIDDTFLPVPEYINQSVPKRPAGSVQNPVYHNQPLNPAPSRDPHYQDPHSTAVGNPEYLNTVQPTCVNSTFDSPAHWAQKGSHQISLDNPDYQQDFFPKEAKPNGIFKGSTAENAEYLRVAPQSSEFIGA
Description: Inhibition of the epidermal growth factor receptor.

[7] = target: Proto-oncogene tyrosine-protein kinase Src (Homo sapiens, UniProt P12931)
Sequence of Proto-oncogene tyrosine-protein kinase Src (P12931 2-536 limits assumed): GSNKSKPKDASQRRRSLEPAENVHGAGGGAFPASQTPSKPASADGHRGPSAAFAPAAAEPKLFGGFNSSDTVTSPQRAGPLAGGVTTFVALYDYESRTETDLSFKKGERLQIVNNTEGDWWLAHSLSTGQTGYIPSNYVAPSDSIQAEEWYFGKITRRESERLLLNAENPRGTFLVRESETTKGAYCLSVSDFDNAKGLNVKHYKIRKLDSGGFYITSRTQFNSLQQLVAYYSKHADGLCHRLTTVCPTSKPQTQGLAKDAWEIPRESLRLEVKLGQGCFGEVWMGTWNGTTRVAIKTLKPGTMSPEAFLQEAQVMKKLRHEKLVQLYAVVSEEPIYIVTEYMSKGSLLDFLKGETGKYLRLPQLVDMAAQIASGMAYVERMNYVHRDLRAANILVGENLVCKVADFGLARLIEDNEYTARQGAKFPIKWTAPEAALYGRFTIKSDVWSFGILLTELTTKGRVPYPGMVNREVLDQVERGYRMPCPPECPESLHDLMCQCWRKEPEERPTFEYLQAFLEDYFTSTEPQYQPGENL
Description: Inhibition of c-Src-tyrosine kinase.

[8] = Dissociation constant pKa was determined; type: physicochemical

Sequence of Tyrosine-protein kinase ABL1 (P00519 whole entry, looked up): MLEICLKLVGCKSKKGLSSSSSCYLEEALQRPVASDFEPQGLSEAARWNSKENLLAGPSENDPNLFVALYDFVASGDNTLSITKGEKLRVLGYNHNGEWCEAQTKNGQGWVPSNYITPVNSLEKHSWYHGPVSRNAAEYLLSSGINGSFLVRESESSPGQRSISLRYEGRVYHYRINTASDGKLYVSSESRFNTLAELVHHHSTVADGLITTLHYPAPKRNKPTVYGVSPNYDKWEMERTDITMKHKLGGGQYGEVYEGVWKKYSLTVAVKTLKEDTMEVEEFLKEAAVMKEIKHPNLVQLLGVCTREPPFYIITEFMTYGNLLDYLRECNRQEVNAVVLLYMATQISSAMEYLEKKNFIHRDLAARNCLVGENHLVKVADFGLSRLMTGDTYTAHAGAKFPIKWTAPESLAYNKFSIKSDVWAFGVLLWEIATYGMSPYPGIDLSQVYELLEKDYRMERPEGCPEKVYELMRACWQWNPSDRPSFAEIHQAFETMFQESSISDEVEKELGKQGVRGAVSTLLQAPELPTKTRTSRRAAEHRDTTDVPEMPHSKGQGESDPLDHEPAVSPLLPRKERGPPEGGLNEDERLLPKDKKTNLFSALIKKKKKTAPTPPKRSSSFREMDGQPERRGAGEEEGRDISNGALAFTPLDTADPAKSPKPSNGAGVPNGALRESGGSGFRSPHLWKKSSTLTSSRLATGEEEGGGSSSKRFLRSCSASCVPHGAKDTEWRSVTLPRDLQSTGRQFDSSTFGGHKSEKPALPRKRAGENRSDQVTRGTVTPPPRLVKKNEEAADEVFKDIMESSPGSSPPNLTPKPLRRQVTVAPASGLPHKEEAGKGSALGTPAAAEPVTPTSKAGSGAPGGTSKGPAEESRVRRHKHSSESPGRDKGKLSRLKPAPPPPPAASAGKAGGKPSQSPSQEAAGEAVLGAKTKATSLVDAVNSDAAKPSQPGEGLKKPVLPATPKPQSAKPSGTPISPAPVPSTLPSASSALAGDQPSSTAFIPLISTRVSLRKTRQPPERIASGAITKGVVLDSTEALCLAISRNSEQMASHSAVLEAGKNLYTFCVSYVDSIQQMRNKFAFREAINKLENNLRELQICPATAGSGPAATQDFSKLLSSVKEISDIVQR

SMILES | IC50 [1] | IC50 [2] | IC50 [3] | IC50 [4] | IC50 [5] | IC50 [6] | IC50 [7] | pKa [8]
Cc1ccc(NC(=O)c2ccc3ccccc3c2)cc1Nc1nccc(-c2cccnc2)n1 | > 100 µM | 0.2 µM |  |  |  |  |  | 
Cc1ccc(C(=O)Nc2ccc(C)c(Nc3nccc(-c4cccnc4)n3)c2)cc1 | > 100 µM |  |  |  |  |  |  | 
Cc1ccc(NC(=O)c2ccccc2)cc1Nc1nccc(-c2cccnc2)n1 | > 500 µM | 0.4 µM |  |  |  |  |  | 
Cc1ccc(NC(=O)c2ccc(Cl)cc2)cc1Nc1nccc(-c2cccnc2)n1 | > 100 µM | 0.8 µM | > 100 µM |  |  |  |  | 
O=C(Nc1cccc(Nc2nccc(-c3cccnc3)n2)c1)c1ccccc1 | > 500 µM | 0.4 µM |  |  |  |  |  | 
Cc1ccc(N)cc1Nc1nccc(-c2cccnc2)n1 | > 500 µM | 1.5 µM |  | 240 µM |  |  |  | 
c1cncc(-c2ccnc(Nc3cccc(-n4ccnc4)c3)n2)c1 | > 500 µM | 3.3 µM | 21 µM | 1 µM | 18 µM | > 100 µM | 1.6 µM | 
O=C(Nc1cccc(Nc2nccc(-c3cccnc3)n2)c1)c1ccccn1 | > 500 µM | 3.8 µM |  |  | > 100 µM |  | 90 µM | 
NCCCn1ccc2c(-c3ccnc(Nc4cccc(OC(F)(F)C(F)F)c4)n3)cccc21 | 2 µM | 0.35 µM | 4.4 µM | 0.18 µM | 5 µM | 0.53 µM | 0.5 µM | 
COc1ccccc1C(=O)Nc1cccc(Nc2nccc(-c3cccnc3)n2)c1 | > 500 µM | 1.9 µM | > 500 µM | 0.32 µM | 1 µM | 100 µM | > 100 µM | 
Clc1cccc(Nc2nccc(-c3cccnc3)n2)c1 | > 500 µM | 1.5 µM | 23 µM | 1.6 µM | > 10 µM | > 100 µM | > 100 µM | 
COc1ccccc1C(=O)Nc1ccc(C)c(Nc2nccc(-c3cccnc3)n2)c1 | > 500 µM | 0.8 µM | > 100 µM | 80 µM |  |  |  | 
O=C(Nc1cccc(Nc2nccc(-c3cccnc3)n2)c1)c1cccnc1 | > 500 µM | 0.15 µM | 17 µM | 1.7 µM | 50 µM | > 100 µM | 9 µM | 2.56
O=C(Nc1cccc(Nc2nccc(-c3cccnc3)n2)c1)c1ccc(F)cc1 | > 500 µM | 0.2 µM |  |  | 3 µM | > 50 µM | > 100 µM | 
CC(=O)Nc1ccc(C)c(Nc2nccc(-c3cccnc3)n2)c1 | > 500 µM | 5.8 µM |  | 500 µM |  |  |  | 
FC(F)C(F)(F)Oc1cccc(Nc2nccc(-c3c[nH]c4ccccc34)n2)c1 | 73 µM | 0.37 µM | 1.4 µM | 0.29 µM | > 10 µM | 1.8 µM | 2.2 µM | 
O=C(Nc1cccc(Nc2nccc(-c3cccnc3)n2)c1)c1ccncc1 | > 500 µM | 0.5 µM | 24 µM | 1.3 µM | > 100 µM | > 100 µM | 78 µM | 
FC(F)C(F)(F)Oc1cccc(Nc2nccc(-c3ccncc3)n2)c1 | > 500 µM | > 100 µM | > 100 µM | 0.3 µM | > 10 µM | > 100 µM | > 100 µM | 

SMILES | IC50 [1] | IC50 [2] | IC50 [3] | IC50 [4] | IC50 [5] | IC50 [6] | IC50 [7] | pKa [8]
O=[N+]([O-])c1cccc(Nc2nccc(-c3ccncc3)n2)c1 | > 500 µM | 61 µM | > 500 µM | 2.6 µM | > 100 µM | > 100 µM | > 100 µM | 
O=C(O)c1ccccc1C(=O)Nc1cccc(Nc2nccc(-c3cccnc3)n2)c1 | > 500 µM | 2 µM |  |  | > 100 µM |  | 44 µM | 
O=[N+]([O-])c1cccc(Nc2nccc(-c3cccnc3)n2)c1 | > 500 µM | 34 µM | > 500 µM | 0.79 µM | > 100 µM | 100 µM | 93 µM | 
O=C(Nc1cccc(Nc2nccc(-c3cccnc3)n2)c1)c1cccs1 | > 500 µM | 0.3 µM |  |  | 20 µM | > 50 µM | 3 µM | 
CCCCCC(=O)Nc1cccc(Nc2nccc(-c3cccnc3)n2)c1 |  | 0.2 µM | 19 µM | 2 µM | 0.6 µM | > 100 µM | 3.7 µM | 
COC(=O)c1cccc(Nc2nccc(-c3cccnc3)n2)c1 | > 500 µM | 5.1 µM |  |  | > 10 µM |  | 90 µM | 
CN1CCN(Cc2ccc(C(=O)Nc3cccc(Nc4nccc(-c5cccnc5)n4)c3)cc2)CC1 | 475 µM | 0.1 µM |  |  | 0.2 µM | > 100 µM | 7.8 µM | 
Nc1cccc(Nc2nccc(-c3ccncc3)n2)c1 |  | 0.6 µM |  |  | > 10 µM |  | 16 µM | 
Nc1cccc(Nc2nccc(-c3cccnc3)n2)c1 | 6 µM | 0.7 µM | > 500 µM | 210 µM | > 100 µM |  | 14 µM | 
O=C(O)c1cccc(Nc2nccc(-c3cccnc3)n2)c1 |  | 8 µM | > 100 µM | 45 µM | > 10 µM |  | 126 µM | 
FC(F)C(F)(F)Oc1cccc(Nc2nccc(-c3ccc(Cl)cc3)n2)c1 | > 500 µM | > 50 µM | > 100 µM | 0.85 µM | > 10 µM | > 100 µM | > 100 µM | 
c1ccc(Nc2nccc(-c3cccnc3)n2)cc1 | > 500 µM | 1.8 µM | 39 µM | 10.5 µM | > 10 µM | 100 µM | > 100 µM | 
O=C(Nc1cccc(Nc2nccc(-c3cccnc3)n2)c1)C1CCCCC1 | > 500 µM | 0.45 µM |  |  | 0.8 µM | > 100 µM | 46 µM | 
c1cc(Nc2nccc(-c3cccnc3)n2)cc(OCCn2ccnc2)c1 | 340 µM | 1 µM | 34 µM | 1.5 µM | > 10 µM | 7.1 µM | 4.9 µM | 
N#Cc1ccc(C(=O)Nc2cccc(Nc3nccc(-c4cccnc4)n3)c2)cc1 | > 500 µM | 1.3 µM | > 500 µM | 0.35 µM | 1.5 µM | > 100 µM | > 100 µM | 
Cc1ccc(C(=O)Nc2cccc(Nc3nccc(-c4cccnc4)n3)c2)cc1 | > 500 µM | 1 µM |  |  | 0.8 µM | > 100 µM | > 100 µM | 
NCCCNC(=O)c1cccc(Nc2nccc(-c3cccnc3)n2)c1 |  | 0.4 µM |  |  | > 10 µM |  | 9.8 µM | 
O=[N+]([O-])c1cccc(Nc2nccc(-c3ccccn3)n2)c1 | > 500 µM | 1.2 µM | > 500 µM | 2.5 µM | > 100 µM | > 100 µM | > 100 µM | 
